These results are taken from ChEMBL document CHEMBL5236596, “Discovery and Optimization of N-Acyl-6-sulfonamide-tetrahydroquinoline Derivatives as Novel Non-Steroidal Selective Glucocorticoid Receptor Modulators” (J Med Chem, 2022).

Data set [1] relates to GES1. The data set is described as follows: Cytotoxicity against human GES1 cells assessed as inhibition of cell growth. The data set is classed as toxicity, cell-based.
A short description of data set [2]: Toxicity in DNCB-induced BALB/c atopic dermatitis mouse model assessed as body weight gain at 1 mg/kg, po administered via gavage for 21 consecutive days starting from day 4 post DNCB stimulation. As to conditions: in vivo, 504 h, time 21 day. The data set is classed as organism-based.
Data set [3] has as its system NIH3T3. Briefly: Cytotoxicity against mouse 3T3 cells assessed as inhibition of cell growth. The data set is classed as toxicity, cell-based.
In data set [4] the target is T1, Glucocorticoid receptor (Homo sapiens, UniProt P04150).
T1 sequence (P04150 whole entry): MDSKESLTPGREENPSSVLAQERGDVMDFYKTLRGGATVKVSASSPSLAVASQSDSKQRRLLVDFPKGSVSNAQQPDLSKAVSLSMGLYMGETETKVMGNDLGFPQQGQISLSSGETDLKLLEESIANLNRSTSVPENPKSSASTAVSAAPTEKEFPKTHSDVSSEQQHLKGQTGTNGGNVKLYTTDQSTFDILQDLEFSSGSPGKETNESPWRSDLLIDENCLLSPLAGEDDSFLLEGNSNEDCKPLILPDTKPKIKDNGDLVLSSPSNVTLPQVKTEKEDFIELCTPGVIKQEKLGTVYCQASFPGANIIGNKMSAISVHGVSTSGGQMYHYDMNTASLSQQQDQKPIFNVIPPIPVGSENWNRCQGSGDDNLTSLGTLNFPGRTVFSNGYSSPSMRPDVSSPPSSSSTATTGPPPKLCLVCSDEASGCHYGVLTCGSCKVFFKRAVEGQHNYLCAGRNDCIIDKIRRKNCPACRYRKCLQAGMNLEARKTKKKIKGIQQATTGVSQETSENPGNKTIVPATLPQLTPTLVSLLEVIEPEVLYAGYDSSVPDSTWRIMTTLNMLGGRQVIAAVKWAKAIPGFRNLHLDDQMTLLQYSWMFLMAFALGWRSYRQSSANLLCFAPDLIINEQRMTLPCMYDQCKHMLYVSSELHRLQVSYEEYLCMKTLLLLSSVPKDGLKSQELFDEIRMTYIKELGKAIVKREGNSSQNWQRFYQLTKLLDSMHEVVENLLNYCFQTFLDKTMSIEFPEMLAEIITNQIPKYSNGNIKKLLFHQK
The data set is described as follows: Modulation of glucocorticoid receptor (unknown origin) transfected in human HeLa cells assessed as transrepression by measuring inhibition of TNF-alpha induced NF-kappaB signalling incubated for 18 hrs by dual-luciferase reporter based assay. Format: cell-based. (In general: Reporter assays use an easily measured gene product as a stand-in for the process of interest.)

The nature of data set [5]: Toxicity in DNCB-induced BALB/c atopic dermatitis mouse model assessed as reduction in body weight at 5 to 20 mg/kg, po administered via gavage for 21 consecutive days starting from day 4 post DNCB stimulation. The data set is classed as organism-based. As to conditions: in vivo, 504 h, dose 5-20 mg/kg, time 21 day.
The nature of data set [6]: Cmax in BALB/c mouse at 10 mg/kg, po. Format: ADME, organism-based. Set-up: dose 10 mg/kg, route po. The note with it: in vivo.
The target of data set [7] is T1, Glucocorticoid receptor. The data set is described as follows: Antagonist activity at glucocorticoid receptor (unknown origin) transfected in human HeLa cells assessed as inhibition of dexamethasone-induced transactivation of receptor incubated for 18 hrs by firefly luciferase assay. Format: cell-based.
Data set [8] in a line: Oral bioavailability in BALB/c mouse at 10 mg/kg. Format: ADME, organism-based. As to conditions: in vivo.
The nature of data set [9]: Inhibition of LPS-induced IL-6 secretion in mouse primary peritoneal macrophages by ELISA. Format: functional, cell-based. As to conditions: Peritoneal macrophage. (In general: In an ELISA, binding on a coated surface is turned into a signal by an enzyme label.)
Data set [10] is described as follows: Tmax in BALB/c mouse at 10 mg/kg, po. The data set is classed as ADME, organism-based. As to conditions: in vivo.
Data set [11] is described as follows: Inhibition of LPS-induced TNF-alpha secretion in mouse primary peritoneal macrophages by ELISA. The data set is classed as functional, cell-based. The note with it: Peritoneal macrophage.
Data set [12] can be described thus: Half life in BALB/c mouse at 10 mg/kg, po. The data set is classed as ADME, organism-based. The note with it: in vivo.
Data set [13] has as its target T1, Glucocorticoid receptor. Briefly: Modulation of glucocorticoid receptor (unknown origin) transfected in human HeLa cells assessed as transrepression by measuring inhibition of PMA-induced AP-1 signalling incubated for 18 hrs by dual-luciferase reporter based assay. Format: cell-based.
In data set [14] the target is T1, Glucocorticoid receptor. The data set is described as follows: Binding affinity to glucocorticoid receptor (unknown origin) by Lanthascreen TR-FRET competition binding assay. Background: In TR-FRET formats the signal depends on donor and acceptor labels being close together.

For `C[C@@H]1C[C@H]2[C@@H]3CCC4=CC(=O)C=C[C@]4(C)[C@@]3(F)[C@@H](O)C[C@]2(C)[C@@]1(O)C(=O)CO` [DEXAMETHASONE], the Activity entry in [1] and in [2] was “Non-Toxic” throughout.
Usually IC50 stands for the concentration needed to halve the response being measured. For orientation: Cmax means the maximum level reached in the sampled fluid or tissue. In general, bioavailability refers to dose-corrected exposure relative to a reference, in per cent. Low values mean poor availability, high ones good availability. One may read the Tmax as the time from dosing to the highest level. What is called half-life is how long it takes for the measured level to halve. Regarding `COc1cc(C)c(Cl)cc1S(=O)(=O)Nc1ccc2c(c1)CCCN2C(=O)c1ccccc1`, the Activity entry in data set [3], in data set [1] and in data set [5] was “Non-Toxic” in each case. Moreover, the half-inhibitory concentration (IC50) is 0.009 µM in [4]; 19 µM in data set [7]; 6.9 µM in data set [9]; 7.74 µM in data set [11]; 0.13 µM in [13]; 1.91 µM in data set [14]. The highest level in [6] (Cmax) was 394 ng/mL. Besides, the bioavailability in data set [8] was 19.8%. In addition, the Tmax in [10] was 5 min. In data set [12], this molecule had a half-life of 30 min.
